According to patent publication USRE38333E1, “Antiviral phosphonomethoxy nucleotide analogs having increased oral bioavailability” (Gilead Sciences, Inc., priority 1996, dated 2003):
Read-outs that look alike come from different tables or passages of the source.

Columns and labels:
[1] = format: in vitro ADME; details: dog intestinal homogenate, 37° C., 20 μg/mL
Procedure: Dog intestinal segments (jejunum/ileum) were obtained fresh from Pharmakon USA (Waverly, Pa.) and intestinal homogenate was prepared as described for liver. The intestinal homogenates were stored as 1.0 mL aliquots at −70° C.
(§1) Enzymatic stability studies involving plasma and intestinal homogenate were performed with 90% biological fluids.
(§2) One blank (drug free) incubation was performed for each biological fluid. All biological fluid tubes (open) were pre-incubated without PMPA prodrugs in a shaker bath at 37° C. and 100 oscillation/min for 5 minutes. PMPA prodrugs was added to the test incubations (final concentration: 20 μg/mL, mixed and maintained at 37° C. and 100 oscillations/min. Samples (50 μL) were withdrawn at 0, 30, and 60 minutes and the reaction was quenched with 100 μL of 0.1% trifluoroacetic acid (TFA) in acetonitrile. Quenched samples were centrifuged for 5 minutes at 14,000 rpm in an Eppendorf Centrifuge 5402, and the supernatant was used for HPLC analysis.
(§3) For each incubation, the observed rate constant for degradation was calculated by plotting the log of the peak area of PMPA prodrugs versus time of incubation (min). The slope was the observed rate constant (kobs). The half life was calculated according to the following equation: [formula]
(§4) If the observed rate constant for degradation was less than 0.01 min^−1, then t½ was expressed as stable.

[2] = format: in vitro ADME; details: 37° C., 20 μg/mL
Procedure: as §1, §2, §3, §4

[3] = Enzymatic stability in dog liver homogenate (S9); format: in vitro ADME; details: 37° C., 20 μg/mL
Procedure: Dog liver was obtained fresh from Pharmakon USA (Waverly, Pa.). Liver homogenate was prepared following a standard protocol. Dog liver was rinsed three times with ice-code 50 mM sodium/potassium phosphate buffer and homogenized with a Tekmar Tissumizer homogenizer (VWR 33995-060). The homogenate was centrifuged at 9000 g (11,000 rpm for Eppendorf Centrifuge 5402; Brinkman Instruments, Westbury, N.Y.) at 4° C. for 20 minutes. The supernatant was designated at the S9 fraction. The concentration of protein in the S9 fraction was determined using a Bio-Rad Protein Assay Kit II, with bovine serum albumin as standard. Esterase activity was determined using o-nitrophenyl butyreate as substrate and activity was calculated based on the increase in absorbance at 420 nm after a 1 min incubation. The homogenates were stored as 1.0 mL aliquots at −70° C.
as §2, §3, §4

[4] = Partition coefficient (Log PC); format: physicochemical
[5] = Enzymatic stability in human intestinal homogenate (S9); format: in vitro ADME; details: human intestinal homogenate (values in parentheses), 37° C., 20 μg/mL
Procedure: Human intestinal homogenate (S9) was obtained from Keystone Skin Bank (Exton, Pa.) at concentration of 20 mg protein/mL.
as §1, §2, §3, §4

[6] = Oral bioavailability of PMPA and PMPA carbonates in beagle dogs; format: in vivo; details: for % of PMPA IV (1 mg/kg) AUC: PMPA: 6.2-10 mg eq of PMPA/kg, PMPA in plasma; for % of PMPA IV (1 mg/kg) AUC: Prodrug: intact prodrug in plasma; for % of PMPA IV (1 mg/kg) AUC: Monoester: monoester in plasma; for % of PMPA IV (1 mg/kg) AUC: other: other species in plasma
Procedure: PMPA (9-[(R)-2-(phosphonomethoxy)propyl]adenine) and PMPA carbonates were examined to determine the effect of dose on the pharmacokinetics of PMPA in beagle dogs, in particular the bioavailability of PMPA following oral administration to beagle dogs.
The intravenous formulations used as standards were isotonic aqueous solutions containing 50 mg/mL PMPA. Compound was added to 10 mL of WFI (water for injection from Abbott Laboratory) and 1N NaOH was added to adjust the pH to 7.4. The solutions were diluted to 15 mL with WFI and sterile filtered with a 0.2 μm filter. The PMPA dose was 10 mg/kg (0.2 mL/kg).
The intravenous formulation for a 1 mg/kg dose was prepared as described above except only 75 mg of PMPA was added to WFI and the final concentration was 5 mg/mL. The dose was 1 mg/kg (0.2 mL/kg). Oral formulations of carbonates were prepared in 20-40% PEG 400/50 mM citric acid and were adjusted to pH 2.2.
Two groups of five adult male beagle dogs were used. The mean body weight at the time of the first does was 9.6±0.4 Kg (range 9.2-10.2). The dogs were fasted 12-18 hours prior to dosing and until 6 hours post-dose. For pentagastrin pretreatment, dogs were given a single intramuscular injection of pentagastrin (Peptavlon 0.25 mg/mL, Ayerst Laboratories, Inc., Philadelphia, Pa.) at a dose of 6 μg/kg, 20 minutes prior to dosing. Water was provided ad lib.
Each formulation was administered as a single dose to five male beagle dogs. Individual vials of each formulation were provided for each animal. The intravenous formulation was administrated via a cephalic vein. The oral suspension was administered by gavage, followed by two 10 mL water washes. At least one week washout period was allowed between administrations.
Blood samples (4.0 mL) were collected by direct jugular access from each animal into heparinized tubes. Animals remained conscious throughout the sample collection period. Blood was processed immediately for plasma by centrifugation at 2000 rpm for 10 minutes. Plasma samples were frozen and maintained at ≦−20° C. until analyzed.
Urine samples were collected over 0-24 and 24-48 hours time periods. Urine samples from 0-24 and 24-48 hours were divided into aliquots and mixed based on the volume collected and analyzed to determine amount of PMPA recovered from urine during 0-48 hours.
PMPA in Plasma and Urine was determined as follows. PMEA (9-(2-phosphono-methoxyethyl)adenine; adefovir) was used as the internal standard for both analyses. The total concentration of PMPA in dog plasma or urine samples was determined by derivatizing PMPA and PMEA with chloroacetaldehyde to yield a highly fluorescent N^1,N^6-ethenoadenine derivative as described (Russell, J. et al. (1991) Determination of 9-[(2-Phosophonylmethoxy)-ethyl]Adenine in Rat Urine by High-Performance Liquid Chromatography with Fluorescence Detection. J. Chromatogr. (Netherlands) 572, 321-326).
Sample Extraction for PMPA in plasma and urine was performed as follows. Plasma (200 μL) and internal standard ([…]) were mixed with 400 μL of acetonitrile containing 0.1% TFA to precipitate protein. Samples were then evaporated to dryness under reduced pressure at room temperature (Savant SpeedVac). Urine samples (20 μL) and internal standard (30 μL of 10 μg/mL PMEA providing a final PMEA concentration of 1.5 μg/mL) were used directly for derivatization without drying.
The samples were derivatized for analysis as follows. Dried plasma samples or urine samples were reconstituted or mixed in 200 μL derivatization cocktail (0.34% chloroacetaldehyde in 100 mM sodium acetate, pH 4.5), vortexed, and centrifuged for 10 minutes at 14,000 rpm in an Eppendorf Centrifuge 5402. Supernatant was then transferred to a clean screw capped tube and incubated at 95° C. for 40 minutes. Derivatized samples were quenched on ice and evaporated to dryness under reduced pressure at room temperature. […]

HIV-1 (IIIB) = assay: microbe, parasite or virus in culture; format: cell-based; details: MT-2 cells; for IC50: read-out: IC50 (50% inhibitory concentration)
Text: PMPA (9-[(R)-2-(phosphonomethoxy)propyl]adenine) and PMPA carbonates were examined to determine their activity against HIV-1.

MT-2 cells = assay: Cytotoxicity in MT-2 cells; format: cell-based; details: MT-2 cells; read-out: CC50 (concentration to kill 50% of the cells)
Procedure: (§5) PMPA (9-[(R)-2-(phosphonomethoxy)propyl]adenine) and PMPA carbonates were examined to determine their activity against HIV-1. The antiviral activity of the carbonates 5a, 5c-g against HIV-1 (IIIB) was determined in MT-2 cells and the IC50 (50% inhibitory concentration) and CC50 (concentration to kill 50% of the cells) values were measured. […] The increased activity can be attributed to increased cellular uptake of the prodrugs followed by effective intracellular conversion to PMPA, which undergoes subsequent phosphorylation to the antivirally active diphosphate metabolite. […] The partition coefficient values support this hypothesis, with all prodrugs being more lipophilic (logP=0.6-3.2) compared to PMPA (logP=−2.5). [drawing 32]

[7] = Cytotoxicity in MT-2 cells; format: cell-based; details: human
Procedure: as §5

IC50 (HIV-1 (IIIB); Human immunodeficiency virus 1, MT2, HIV-1 (IIIB)) [µM] | Compound | Biological t½ (min) (Dog) Intestine [1] | Biological t½ (min) (Dog) Plasma [2] | Biological t½ (min) (Dog) Liver [3] | Log PC pH 7.4 [4] | Biological t½ (min) (Human) Intestine [5] | % of PMPA IV (1 mg/kg) AUC: PMPA [6] [%] | % of PMPA IV (1 mg/kg) AUC: Prodrug [6] [%] | % of PMPA IV (1 mg/kg) AUC: Monoester [6] [%] | % of PMPA IV (1 mg/kg) AUC: other [6] [%] | Urinary Recovery (% as PMPA) ([6]; urine 0-48 hours) [%] | IC50 (HIV-1 (IIIB); HIV-1 (IIIB)) [µM] | increased potency compared to PMPA (HIV-1 (IIIB); HIV-1 (IIIB), relative to PMPA) [fold] | CC50 (MT-2 cells) [µM] | SI, Selectivity Index (CC50/IC50) (HIV-1 (IIIB); HIV-1) | CC50 [7] [µM]
– | CCOC(=O)OC(C)OP(=O)(CO[C@H](C)Cn1cnc2c(N)ncnc21)OC(C)OC(=O)OCC (stereo partly drawn) [Bis-EtCOE PMPA] | 62.4 min | 42.6 min | <5 | – | – | – | – | – | – | – | – | – | – | – | –
– | CCOC(=O)OCOP(=O)(CO[C@H](C)Cn1cnc2c(N)ncnc21)OCOC(=O)OCC [Bis-EtCOM PMPA, Bis-ethyl Oxymethyl Carbonate of PMPA] | 23.3 min | 16.6 min | <5 | 0.6 | (<5) min | 29.3 ± 3.4 | 0 | −2 | 0 | – | – | – | – | – | –
– | CC(C)COC(=O)OCOP(=O)(CO[C@H](C)Cn1cnc2c(N)ncnc21)OCOC(=O)OCC(C)C [Bis-IBu COM PMPA] | 15 min | <5 min | <5 | 2.0 | (<5) min | 24.5 ± 8.82 | – | – | – | – | – | – | – | – | –
– | CCCN(CCC)C(=O)OCOP(=O)(CO[C@H](C)Cn1cnc2c(N)ncnc21)OCOC(=O)N(CCC)CCC [Bis-di-n-proNCOM PMPA] | Stable (If the observed rate constant for degradation was less than 0.01 min^−1, then t½ was expressed as stable) | Stable (If the observed rate constant for degradation was less than 0.01 min^−1, then t½ was expressed as stable) | 76 | – | – | – | – | – | – | – | – | – | – | – | –
– | CC(C)OC(=O)OCOP(=O)(CO[C@H](C)Cn1cnc2c(N)ncnc21)OCOC(=O)OC(C)C [Bis-isopropylCOM PMPA, Bis Isopropyl Oxymethyl Carbonate of PMPA] | 52.6 min | 20.5 min | <5 | 1.25 | (<5) min | 35.8 ± 14.7 | 0 | 3.1 | 0 | – | – | – | – | – | –
– | CCCCOC(=O)OCOP(=O)(CO[C@H](C)Cn1cnc2c(N)ncnc21)OCOC(=O)OCCCC [Bis-nBuCOM PMPA, Bis-n-butyl Oxymethyl Carbonate of PMPA] | <5 min | <5 min | <5 | 2.7 | (<5) min | 17.3 ± 2.57 | – | – | – | – | – | – | – | – | –
– | C[C@H](Cn1cnc2c(N)ncnc21)OCP(=O)(OCOC(=O)OC(C)(C)C)OCOC(=O)OC(C)(C)C [Bis-t-Bu COM PMPA] | 26.6 min | 21.2 min | 14.9 | 1.93 | (<5) min | 36.2 ± 6.76 | – | – | – | 34.9 | 0.2 | 2.5 | 10 | – | –
– | C[C@H](Cn1cnc2c(N)ncnc21)OCP(=O)(OCOC(=O)NC(C)(C)C)OCOC(=O)NC(C)(C)C [Bis-tBuNCOM PMPA] | 107.5 min | 99.5 min | 166.5 | – | – | 8.86 ± 2.38 | 9.97 | – | – | – | – | – | – | – | –
0.5 | C[C@H](Cn1cnc2c(N)ncnc21)OCP(=O)(O)O [PMPA, 9-[(R)-2-(phosphonomethoxy)propyl]adenine, reference compound] | – | – | – | – | – | – | – | – | – | – | – | – | – | 500 | 250
